Reference: patent US10682367B2, “Antitumor arylnaphthalene ligand glycosides” (OHIO STATE INNOVATION FOUNDATION, priority 2016, dated 2020)
pIC50: −log10 of the molar value. Values after ≈ are worked out from the molar mass of the structure shown. Like-named read-outs stand apart in the source and are kept apart here.

Assays:
[1] = system: OVCAR3 ovarian cancer cell line; test: IC50 in ovarian cancer cell line OVCAR3; format: cell-based
Method: (§1) The compounds shown in FIG. 2 were tested against two different ovarian cancer cell lines (xenograft mouse model OVCAR3 and OVCAR8 ovarian cancer cell lines). […] A summary of the test data is shown in FIGS. 3A, 3B, and 4 and Table 3. A comparison of the IC50 values of the compounds in FIG. 2 in two of the ovarian cancer cell lines (OVCAR3 and OVCAR8) reveal subtle differences in activity.

[2] = system: OVCAR8 ovarian cancer cell line; test: IC50 in ovarian cancer cell line OVCAR8; format: cell-based
Method: as §1

[3] = Solubility, plate reader-based absorbance assay; format: physicochemical
Text: A series of compounds were synthesized to improve their water solubility. In particular, phyllanthusmin derivatives including an arabinose derivative with a free C2 hydroxy group, have been explored to produce phosphate, succinate, and amino acid conjugates. In addition PHY-25 and PHY-30 have also been synthesized to contain similar alcohol functionality that can ultimately be utilized to improve water solubility. PHY-28 and PHY-29 containing a glucosamine moiety were also synthesized for improved water solubility. The water solubility of these and other PHY derivatives was assessed (Table 2) to establish a baseline of solubility in a series of 4 solutions. This was accomplished using a plate reader-based absorbance assay.
The solubility, maximum tolerated dose, and pharmacokinetics of the phyllanthusmins, facilitating the in vivo studies with PHY-34, were also determined. The solubility of the compounds were assessed in DMSO, PEG300, HPβCD, and PBS. The stability of PHY-34 was assessed in a formulation comprising PEG300 and saline at a 1:1 volume ratio. The solution was prepared at a concentration of 7 mg/ml. A plate reader-based absorbance assay or LC-MS/MS was used. Table 4 summarizes the solubility measurements. FIG. 5 and Table 5 summarize the stability measurements. FIGS. 6A and 6B show the concentration-time profile of PHY-34 in mouse plasma via different administration routes

HT-29 cells = test: Cytotoxicity / antiproliferative activity against HT-29 cells; format: cell-based; conditions: HT-29 cells, antiproliferative activity
Text: The cytotoxicity of the compounds in FIG. 1 was screened against HT-29 cells by a previously reported procedure (Ren Y et al. J. Nat. Prod 2011, 74, 1117-1125). A summary of the results is described in Table 1.

[4] = Structure-activity remarks on potency of PHY analogues (test not named); conditions: relative to PHY-34 type acetal

COc1cc([C@@H]2c3cc4c(cc3[C@@H](O[C@@H]3O[C@@H]5CO[C@@H](C)O[C@H]5[C@H](O)[C@H]3O)[C@H]3COC(=O)[C@H]23)OCO4)cc(OC)c1O [ETOPO, etoposide, reference compound]
pIC50 ([1]; OVCAR3): 5.62 | pIC50 ([2]; OVCAR8): 5.09

COc1cc2c(O[C@@H]3OC[C@H](OC(C)=O)[C@H](OC(C)=O)[C@H]3OC(C)=O)c3c(c(-c4ccc5c(c4)OCO5)c2cc1OC)C(=O)OC3 [PHY-7, 7-O-((2,3,4-tri-O-acetyl)-α-L-arabinopyranosyl) diphyllin]
Solubility in 10% Cremaphor EL/PBS [3]: 7.4 mg/mL (≈ 11.6 mM) | Solubility in DMSO [3]: 112 mg/mL (≈ 175 mM) | Solubility in PBS [3]: 0.14 mg/mL (≈ 0.219 mM) | Solubility in PEG300 [3]: 5.7 mg/mL (≈ 8.93 mM)

COc1cc2c(OCCOCc3ccccc3)c3c(c(-c4ccc5c(c4)OCO5)c2cc1OC)C(=O)OC3 [PHY-17]
pIC50 (HT-29 cells): 5.85

C=CCOc1c2c(c(-c3ccc4c(c3)OCO4)c3cc(OC)c(OC)cc13)C(=O)OC2 [PHY-18]
pIC50 (HT-29 cells): 6.24

COc1cc2c(OCC(O)CO)c3c(c(-c4ccc5c(c4)OCO5)c2cc1OC)C(=O)OC3 (stereo not drawn) [PHY-19]
pIC50 (HT-29 cells): 5.81

COc1cc2c(OC3OC(CO)C(OC)C(OC)C3OC)c3c(c(-c4ccc5c(c4)OCO5)c2cc1OC)C(=O)OC3 (stereo not drawn) [PHY-25]
pIC50 (HT-29 cells): 8.77 | pIC50 ([1]; OVCAR3): 5.82 | pIC50 ([2]; OVCAR8): 7.98

COc1cc2c(OC)c3c(c(-c4ccc5c(c4)OCO5)c2cc1OC)C(=O)OC3 [PHY-26]
pIC50 ([1]; OVCAR3): 4.92 | pIC50 ([2]; OVCAR8): 6.82

COc1cc2c(O[C@@H]3O[C@H](COC(C)=O)[C@@H](OC(C)=O)[C@H](OC(C)=O)[C@H]3NC(C)=O)c3c(c(-c4ccc5c(c4)OCO5)c2cc1OC)C(=O)OC3 [PHY-28]
pIC50 (HT-29 cells): 5.81

COc1cc2c(O[C@@H]3O[C@H](CO)[C@@H](O)[C@H](O)[C@H]3NC(C)=O)c3c(c(-c4ccc5c(c4)OCO5)c2cc1OC)C(=O)OC3 [PHY-29]
pIC50 (HT-29 cells): 4.72

COc1cc2c(OC3OCC4OC(C)(C)OC4C3O)c3c(c(-c4ccc5c(c4)OCO5)c2cc1OC)C(=O)OC3 (stereo not drawn) [PHY-30]
pIC50 (HT-29 cells): 7.97 | pIC50 ([1]; OVCAR3): 7.94 | pIC50 ([2]; OVCAR8): 7.93

COc1cc2c(OC3OCC4OC(C)(C)OC4C3OC)c3c(c(-c4ccc5c(c4)OCO5)c2cc1OC)C(=O)OC3 (stereo not drawn) [PHY-31]
pIC50 (HT-29 cells): 8.28

COc1cc2c(OC3OC4COC(C)OC4C(O)C3O)c3c(c(-c4ccc5c(c4)OCO5)c2cc1OC)C(=O)OC3 [PHY-32, 7-O-(4,6-O-ethylidene-β-D-galactopyranosyl)-diphyllin]
effect of acetal variation on potency (in words) [4]: loss of potency

COc1cc2c(OC3OC4COC(C)OC4C(OC)C3OC)c3c(c(-c4ccc5c(c4)OCO5)c2cc1OC)C(=O)OC3 [PHY-33, 7-O-(4,6-O-ethylidene-2,3-di-O-methyl-β-D-galactopyranosyl)-diphyllin]
effect of acetal variation on potency (in words) [4]: loss of potency

COCC1OC(Oc2c3c(c(-c4ccc5c(c4)OCO5)c4cc(OC)c(OC)cc24)C(=O)OC3)C(OC)C2OC(C)(C)OC12 (stereo not drawn) [PHY-35]
pIC50 ([1]; OVCAR3): 8.31 | pIC50 ([2]; OVCAR8): 8.15 | Solubility in DMSO [3]: 86.8 mg/mL (≈ 142 mM) | Solubility in PEG300 [3]: 25.4 mg/mL (≈ 41.6 mM)

COc1cc2c(OC3OC(CO)C4OC(C)(C)OC4C3OC)c3c(c(-c4ccc5c(c4)OCO5)c2cc1OC)C(=O)OC3 (stereo not drawn) [PHY-37]
pIC50 ([1]; OVCAR3): 8.45 | pIC50 ([2]; OVCAR8): 8.31 | Solubility in 30% HPβCD ([3]; Table 4): 0.6 mg/mL (≈ 1.01 mM) | Solubility in DMSO ([3]; Table 4): 104.0 mg/mL (≈ 174 mM) | Solubility in PBS ([3]; Table 4): — (below the limit of quantitation (0.01 mg/ml)) | Solubility in PEG300 ([3]; Table 4): 28.7 mg/mL (≈ 48.1 mM)

COc1cc2c(OC3OC(CO)C4OC5(CCCCC5)OC4C3O)c3c(c(-c4ccc5c(c4)OCO5)c2cc1OC)C(=O)OC3 (stereo not drawn) [PHY-42]
pIC50 ([1]; OVCAR3): 6.42 | pIC50 ([2]; OVCAR8): 8.70 | effect of acetal variation on potency (in words) [4]: well tolerated

COc1cc2c(OC3OC(CO)C4OC5(CCCC5)OC4C3O)c3c(c(-c4ccc5c(c4)OCO5)c2cc1OC)C(=O)OC3 (stereo not drawn) [PHY-43]
pIC50 ([1]; OVCAR3): 6.93 | pIC50 ([2]; OVCAR8): 8.61 | effect of acetal variation on potency (in words) [4]: well tolerated

CC(=O)O[C@H]1C(=O)[C@@]2(C)[C@H]([C@H](OC(=O)c3ccccc3)[C@]3(O)C[C@H](OC(=O)[C@H](O)[C@@H](NC(=O)c4ccccc4)c4ccccc4)C(C)=C1C3(C)C)[C@]1(OC(C)=O)CO[C@@H]1C[C@@H]2O [TAXOL, Taxol, reference compound]
pIC50 ([1]; Homo sapiens, OVCAR-3): 8.23 | pIC50 ([2]; Homo sapiens, OVCAR-8): 8.11

acutissimalignan A [ACUTA, reference compound]
pIC50 ([1]; OVCAR3): 5.50 | pIC50 ([2]; OVCAR8): 7.45

phyllanthusmins B [PHY-3]
Solubility in 10% Cremaphor EL/PBS [3]: 8.9 mg/mL | Solubility in DMSO [3]: 16 mg/mL | Solubility in PBS [3]: 0.18 mg/mL | Solubility in PEG300 [3]: 30 mg/mL

phyllanthusmins C [PHY-4]
Solubility in 10% Cremaphor EL/PBS [3]: 9.4 mg/mL | Solubility in DMSO [3]: 63 mg/mL | Solubility in PBS [3]: 0.17 mg/mL | Solubility in PEG300 [3]: 32 mg/mL

phyllanthusmins C [PHY-11]
Solubility in 10% Cremaphor EL/PBS [3]: 10 mg/mL | Solubility in DMSO [3]: 83 mg/mL | Solubility in PBS [3]: 0.18 mg/mL | Solubility in PEG300 [3]: 15 mg/mL

phyllanthusmins C [PHY-15]
Solubility in 10% Cremaphor EL/PBS [3]: 10 mg/mL | Solubility in DMSO [3]: 75 mg/mL | Solubility in PBS [3]: 0.20 mg/mL | Solubility in PEG300 [3]: 14 mg/mL

phyllanthusmins C [PHY-20]
pIC50 (HT-29 cells): 5.92 | Solubility in 10% Cremaphor EL/PBS [3]: 10 mg/mL | Solubility in DMSO [3]: 86 mg/mL | Solubility in PBS [3]: 0.16 mg/mL | Solubility in PEG300 [3]: 24 mg/mL

phyllanthusmins D [PHY-1]
pIC50 ([1]; OVCAR3): 4.96 | pIC50 ([2]; OVCAR8): 7.30 | Solubility in 10% Cremaphor EL/PBS ([3]; Table 2): 8.4 mg/mL | Solubility in DMSO ([3]; Table 2): 97 mg/mL | Solubility in PBS ([3]; Table 2): 0.12 mg/mL | Solubility in PEG300 ([3]; Table 2): 33 mg/mL
